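Each compound was tested at five concentrations against cells in 96-well plates for 48 hours. TGI: concentration producing complete growth inhibition.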
How the values were obtained:
Assay in all cases: NCI-60 cell line screen, 48 h
786-0 renal = system: 786-0 renal
A549 NSCLC = system: A549 NSCLC
CAKI-1 renal = system: CAKI-1 renal
CCRF-CEM leukemia = system: CCRF-CEM leukemia
COLO 205 colon = system: COLO 205 colon
DLD-1 colon = system: DLD-1 colon
DMS 114 small cell lung = system: DMS 114 small cell lung
EKVX NSCLC = system: EKVX NSCLC
HCC-2998 colon = system: HCC-2998 colon
HCT-116 colon = system: HCT-116 colon
HL-60(TB) leukemia = system: HL-60(TB) leukemia
HOP-18 NSCLC = system: HOP-18 NSCLC
HOP-62 NSCLC = system: HOP-62 NSCLC
HOP-92 NSCLC = system: HOP-92 NSCLC
HT29 colon = system: HT29 colon
IGROV1 ovarian = system: IGROV1 ovarian
K-562 leukemia = system: K-562 leukemia
KM12 colon = system: KM12 colon
M14 melanoma = system: M14 melanoma
M19-MEL melanoma = system: M19-MEL melanoma
MALME-3M melanoma = system: MALME-3M melanoma
MOLT-4 leukemia = system: MOLT-4 leukemia
NCI-H226 lung = system: NCI-H226 lung
OVCAR-3 ovarian = system: OVCAR-3 ovarian
OVCAR-4 ovarian = system: OVCAR-4 ovarian
OVCAR-8 ovarian = system: OVCAR-8 ovarian
RPMI-8226 leukemia = system: RPMI-8226 leukemia
SF-295 CNS = system: SF-295 CNS
SF-539 CNS = system: SF-539 CNS
SK-MEL-2 melanoma = system: SK-MEL-2 melanoma
SK-MEL-5 melanoma = system: SK-MEL-5 melanoma
SK-OV-3 ovarian = system: SK-OV-3 ovarian
SNB-19 CNS = system: SNB-19 CNS
SNB-78 CNS = system: SNB-78 CNS
SW-620 colon = system: SW-620 colon
TK-10 renal = system: TK-10 renal
UACC-257 melanoma = system: UACC-257 melanoma
UACC-62 melanoma = system: UACC-62 melanoma
UO-31 renal = system: UO-31 renal

Measured: TGI

CSc1nc(NC2OC(COC(C)=O)C(OC(C)=O)C(OC(C)=O)C2OC(C)=O)c(N=C(C)C(C)=O)c(=O)[nH]1 (centres undefined)
> 100 µM: all assays above

From PubChem BioAssay (NCI)
